The subject of one test is DSS-induced colitis. As to the kind of experiment: DSS-induced colitis model. The format is in vivo, Balb/c mice. To be noted: 30 mg/kg orally once a day for 5-7 successive days; 1-3% DSS in water for 5-7 days. The source says: Evaluation of Compounds in DSS-Induced Colitis Model
A 1-3% solution of dextran sulfate sodium (hereinafter abbreviated as DSS; ICN) in purified water (Otsuka Pharmaceutical) was fed freely to 6- to 7-week-old male Balb/c mice (Charles River Japan) for 5-7 days to induce colitis. Disease Activity Index (hereinafter abbreviated as DAI) scored based on fecal hardness, blood content in feces and body weight change, the number of neutrophils infiltrating the colon and the length of the colon were used as indexes to evaluate compounds. Each compound was suspended or dissolved in an aqueous solution containing 0.5% methyl cellulose (Wako), and orally administered at 30 mg/kg once a day, for 5-7 successive days.

The subject of test [1] is colon-infiltrating neutrophils (myeloperoxidase enzyme activity). As to the kind of experiment: Oxazolone-induced colon neutrophil infiltration model. The following applies: Mus musculus, po, 30 mg/kg orally 30 minutes prior to intrarectal oxazolone, colon myeloperoxidase activity 4 hours after, vs oxazolone control group, read-out: Inhibitory rate (%). The format is in vivo, Balb/c mice. As to the method:
Evaluation of Compounds in Oxazolone-Induced Colon Neutrophil Infiltration Model
<Sensitization with Oxazolone>
Five- to six-week-old male Balb/c mice (Charles River Japan) were shaven at the abdomen to an approximately 2 cm square area. A 100% ethanol solution containing 3% 4-ethoxymethylene-2-phenyl-2-oxazolin-5-one (hereinafter referred to as “oxazolone”; Sigma) was applied at 150 μl onto the abdomen of each mouse.
<Preparation of Emulsion Containing Oxazolone>
Distilled water (Otsuka Pharmaceutical) was added in an equivalent volume to 100% peanut oil (Kanto Kagaku) containing 1% oxazolone, and the components were vigorously mixed with a glass syringe (Top Co.), to prepare an emulsion containing 0.5% oxazolone.
<Induction with Oxazolone>
The mice were fasted on the 3rd day after oxazolone sensitization, and were injected with 100 μl of the emulsion containing 0.5% oxazolone prepared in the way described above intrarectally at a site approximately 3 cm from the anus under ether anesthesia on the 4th day.
<Colon-Infiltrating Neutrophil Assay>
Each compound was suspended or dissolved in an aqueous solution containing 0.5% methyl cellulose (Wako), and orally administered at 30 mg/kg 30 minutes prior to the intrarectal injection of oxazolone emulsion. Four hours after the intrarectal injection of oxazolone, mice were sacrificed by cervical dislocation, and colons were extirpated, dissected in the longitudinal direction, washed with physiological saline, and transferred to ice-cooled plastic centrifugation tubes. After adding 1 ml of 50 mM potassium phosphate buffer (hereinafter abbreviated as KPB) (pH 6.0) to the tube, and the tissue were homogenized with PHYSCOTRON (Microtec Nition Co., Ltd.), 2 ml of 50 mM KPB (pH 6.0) was added and the mixture was centrifuged at 3000 rpm, 4° C. for 10 minutes and the supernatant was removed. To the resultant precipitate was added 1 ml of 50 mM KPB (pH 6.0) containing 0.5% hexadecyltrimethyl-ammonium bromide (Sigma), and freeze-thawed 3 to 5 times using liquid nitrogen and hot water, centrifuged at 3000 rpm, 4° C. for 10 minutes to yield a supernatant. The myeloperoxidase enzyme activity in the supernatant was assayed in the following manner. Specifically, to 10 μl of the obtained supernatant was added 200 μl of 50 mM KPB (pH6.0) containing 0.017% o-dianisidine (Sigma) and 0.0005% hydrogen peroxide (Wako), incubated at 37° C., and the change in absorbance at 450 nm was continuously measured for 1 minute using an EL340 Automated Microplate Reader (BIO-TEK) in kinetic mode. The units were the rate of change in absorbance per minute (mO.D./min.). With regard to the effect of each compound, the inhibitory rate (%) with respect to the oxazolone control group, i.e. the oxazolone-injected/compound-free group, was shown in the table 3.

On to `CCCCN1CCN(c2ccc(N3CCOCC3)cc2C2=CCC(C(C)(C)C)CC2)CC1.Cl` (racemic) [Example 18, 4-[3-(4-t-Butylcyclohex-1-enyl)-4-(4-butylpiperazine-1-yl)phenyl]morpholine hydrochloride], for which the “improvement in comparison with the DSS control group (DAI, number of neutrophils infiltrating the colon, length of the colon)” value (“improvement in comparison” for short) with DSS-induced colitis is “particularly good improvement”. For the same compound, the inhibition in vivo at 30 mg/kg in test [1] was 50%. As for `COC1CCN(c2ccc(N3CCN(CC4CC4)CC3)c(C3=CCC(C(C)(C)C)CC3)c2)CC1.Cl` (racemic) [Example 20, 1-[2-(4-t-Butylcyclohex-1-enyl)-4-(4-methoxypiperidin-1-yl)phenyl]-4-cyclopropylmethylpiperazine hydrochloride], the “improvement in comparison” value in the test on DSS-induced colitis was “particularly good improvement”. Besides, the inhibition in vivo at 30 mg/kg in test [1] was found to be 38%. In the case of `CCCCCN1CCN(c2cc(OC)ccc2C2CCC(C)(C)CC2)CC1.Cl` [Example 1, 1-[2-(4,4-Dimethylcyclohexyl)-5-methoxyphenyl]-4-pentylpiperazine hydrochloride], the “improvement in comparison” value with DSS-induced colitis was “particularly good improvement”. In addition, in test [1], the inhibition in vivo at 30 mg/kg is 45%. For the compound `CC1(C)CC(c2ccccc2N2CCN(CC3CC3)CC2)CC(C)(C)C1.Cl` [Example 9, 1-Cyclopropylmethyl-4-[2-(3,3,5,5-tetramethylcyclohexyl)phenyl]piperazine hydrochloride], in test [1], the inhibition in vivo at 30 mg/kg is 35%. `CCC(=O)CN1CCN(c2ccccc2C2CCC(C)(C)CC2)CC1.Cl` [Example 17, 1-{4-[2-(4,4-Dimethylcyclohexyl)phenyl]piperazin-1-yl}butan-2-one hydrochloride]: in the test on DSS-induced colitis, the “improvement in comparison” value is recorded as “particularly good improvement”. In test [1], the inhibition in vivo at 30 mg/kg was 30%. Take `COCCN1CCN(c2ccccc2C2CCC(C(C)(C)C)CC2)CC1.Cl` (stereo not shown) [Example 19, 1-[2-(4-t-Butylcyclohexyl)phenyl]-4-(2-methoxyethyl)piperazine hydrochloride]: in the test on DSS-induced colitis, the “improvement in comparison” value was “particularly good improvement”. As for `CC1(C)C=C(c2ccccc2N2CCN(CC3CCOCC3)CC2)CC(C)(C)C1.Cl` [Example 22, 1-(Tetrahydropyran-4-ylmethyl)-4-[2-(3,3,5,5-tetramethylcyclohex-1-enyl)phenyl]piperazine hydrochloride], the “improvement in comparison” value in the test with DSS-induced colitis is “particularly good improvement”. Further, in test [1], the inhibition in vivo at 30 mg/kg was found to be 28%.

For `CCCN1CCN(c2ccc(N3CCOCC3)cc2C2=CC(C)(C)CC(C)(C)C2)CC1.Cl` [Example 28, 4-[4-(4-Propylpiperazin-1-yl)-3-(3,3,5,5-tetramethylcyclohex-1-enyl)phenyl]morpholine hydrochloride], the “improvement in comparison” value in the test with DSS-induced colitis is recorded as “particularly good improvement”. Further, the inhibition in vivo at 30 mg/kg in test [1] turned out to be 48%. Take `CCC(=O)CN1CCN(c2ccc(N3CCOCC3)cc2C2=CCC(CC)(CC)CC2)CC1.Cl` [Example 30, 1-{4-[2-(4,4-Diethylcyclohex-1-enyl)-4-morpholin-4-ylphenyl]piperazin-1-yl}butan-2-one hydrochloride]: the “improvement in comparison” value in the test with DSS-induced colitis is “particularly good improvement”. Also, the inhibition in vivo at 30 mg/kg in test [1] turned out to be 23%. On to `CCCN1CCN(c2ccccc2C2CC(C)(C)CC(C)(C)C2)CC1.Cl` [Example 31, 1-Propyl-4-[2-(3,3,5,5-tetramethylcyclohexyl)phenyl]piperazine hydrochloride], for which the “improvement in comparison” value in the test with DSS-induced colitis is reported as “particularly good improvement”. In addition, the inhibition in vivo at 30 mg/kg in test [1] came to 38%. Consider `CC(C)CN1CCN(c2ccccc2C2=CCC3(CC2)CC3)CC1.Cl` [Example 34, 1-Isobutyl-4-(2-spiro[2.5]oct-5-en-6-ylphenyl)piperazine hydrochloride], for which the “improvement in comparison” value with DSS-induced colitis was “particularly good improvement”.
